In this test the target is T1, Cbl-b (truncated variant, UniProt number Q13191) (Homo sapiens, UniProt Q13191).
T1 construct: made in house
The test can be described thus: Cbl-b activity assay (TR-FRET, interaction of Cbl-b with UbcH5B-Ub). Type of test: biochemical. An excerpt:
As described in Biological Example 1A, a Cbl-b activity assay (Cbl-b inhibition assay) used to measure the IC50 values for Cbl-b inhibition uses a mixture comprising candidate compound, Cbl-b (truncated, with an Avitag, and biotinylated), a fluorescently-labeled E2 enzyme UbcH5B labelled with ubiquitin conjugated to BODIPY-fluorescein (UbcH5B-Ub), streptavidin-terbium, and assay buffer. In one embodiment, the Cbl-b activity assay (Cbl-b inhibition assay) used to measure IC50 for inhibition of Cbl-b uses the conditions described in Biological Example 1A with 12 nM Cbl-b. […] In another embodiment, the Cbl-b activity assay (Cbl-b inhibition assay) used to measure IC50 for inhibition of Cbl-b uses the conditions described in Biological Example 1B, with candidate compound, 0.125 nM Cbl-b (truncated, with an avitag, and biotinylated), fluorescently labelled inhibitor probe, and assay buffer. Displacement of the inhibitor probe indicates Cbl-b activity.
Candidate compounds isolated from screening assays were evaluated for their ability to bind and inhibit Cbl-b, an E3 ubiquitin-protein ligase.
The ability of candidate compounds to inhibit Cbl-b activity was measured by monitoring the interaction of Cbl-b with UbcH5B-Ub in the presence of the candidate compound. A truncated variant of Cbl-b (UniProt number Q13191; SEQ ID NO:1) containing an Avitag at its N-terminus was co-expressed with BirA biotin ligase and purified using a standard protocol (see Dou et al., Nature Structural and Molecular Biology 8: 982-987, 2013; Avidity LLC).
Fluorescently labeled UbcH5B-Ub was prepared by conjugating ubiquitin (Ub), labeled at its N-terminus with Bodipy-Fluorescein, to UbcH5B, an E2 enzyme, harboring a cysteine to lysine mutation at position 85. This mutation is similar to a mutation that was previously reported (see Dou et al., Nature Structural and Molecular Biology 8: 982-987, 2013). Cbl-b activity assays were performed in a 384-well plate at room temperature in a 10 μL reaction volume by pre-incubating 12 nM Cbl-b (final concentration) in an assay buffer containing 50 mM HEPES pH 7.0, 100 mM NaCl, 0.01% Triton X-100, 0.01% BSA, and 1 mM DTT in the presence of a candidate compound in 1% DMSO (final concentration, High Conditions) for one hour. After incubation in the presence of the candidate compound, the plate was incubated for an additional 1.5 hours in the presence of 60 nM Src kinase with 1 mM ATP and 5 mM MgCl2 (final concentrations). Alternatively, compounds were tested as described above with assay buffer containing 50 mM NaCl instead of 100 mM NaCl and 30 nM Src kinase instead of 60 nM Src kinase (Low Conditions). Src kinase was prepared as previously described (see Kobashigawa et al., Proc Natl Acad Sci USA, 108: 20579-20584, 2011). […] The plate was incubated for one hour. Following the one hour incubation, the plates were read for TR-FRET signal at 520/620 nm using Envision plate reader (Perkin Elmer). The presence of a FRET signal that indicated Cbl-b was not inhibited by the compound candidate. The absence of a FRET signal indicated Cbl-b was inhibited by the compound candidate and was therefore a Cbl-b inhibitor.
The resulting data for the Cbl-b activity assays were analyzed using standard methods to report the IC50 values of the tested compounds (Tables 3-4). The resulting data for the Cbl-b binding assay was solvent corrected and double-referenced prior to analysis. All data were globally fit to a steady-state affinity and kinetic binding model where applicable. Compounds were ranked into bins A through D as follows for IC50: A indicates <0.1 μM, B indicates 0.1 μM≤IC50<1 μM, C indicates 1 μM≤IC50<5 μM, and D indicates 5 μM≤IC50.
Background: Time-resolved FRET reads energy transfer from a long-lived donor to a nearby acceptor.

Where [1] appears, read: high conditions: 100 mM NaCl, 60 nM Src kinase, 12 nM Cbl-b, read-out: Cbl-b activity IC50.
[2] abbreviates: Biological Example 1A, low or high conditions not stated, read-out: IC50 values in the Cbl-b inhibition assay of Biological Example 1A.

Where two headings read alike, the source gives them in different places.

T1 sequence (Q13191 36-427): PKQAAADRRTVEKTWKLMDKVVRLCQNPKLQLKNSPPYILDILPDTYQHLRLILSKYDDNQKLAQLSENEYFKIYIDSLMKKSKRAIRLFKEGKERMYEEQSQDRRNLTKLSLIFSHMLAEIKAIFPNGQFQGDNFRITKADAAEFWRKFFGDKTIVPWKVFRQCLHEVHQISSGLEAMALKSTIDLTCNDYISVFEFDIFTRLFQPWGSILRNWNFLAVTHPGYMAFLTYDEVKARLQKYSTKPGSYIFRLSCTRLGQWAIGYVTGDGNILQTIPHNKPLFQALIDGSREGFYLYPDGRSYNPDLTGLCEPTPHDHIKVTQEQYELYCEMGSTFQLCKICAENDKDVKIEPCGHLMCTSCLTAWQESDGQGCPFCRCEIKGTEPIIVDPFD

As usually defined, the IC50 is the point on the concentration scale where inhibition reaches its midpoint. For the molecule `C[C@H](Sc1nncn1C)c1cccc(NC(=O)N2CCC(C(F)F)C2)c1` (stereo partly drawn) [Example 47, 3-(difluoromethyl)-N-(3-((S)-1-((4-methyl-4H-1,2,4-triazol-3-yl)thio)ethyl)phenyl)pyrrolidine-1-carboxamide], the 50% inhibitory concentration (IC50) under setting [1] is no less than 5 µM.

For `C[C@H](Sc1nncn1C)c1cccc(NC(=O)N2CCOC3(CC3)C2)c1` [Example 48, (S)—N-(3-(1-((4-methyl-4H-1,2,4-triazol-3-yl)thio)ethyl)phenyl)-4-oxa-7-azaspiro[2.5]octane-7-carboxamide], the IC50 under setting [1] was no less than 5 µM. Same read-out and setting: in the case of `C[C@H](Sc1nncn1C)c1cccc(NC(=O)N(C)C2CCC2)c1` [Example 49, (S)-1-cyclobutyl-1-methyl-3-(3-(1-((4-methyl-4H-1,2,4-triazol-3-yl)thio)ethyl)phenyl)urea] it was no less than 5 µM. Turning to `CNC(=O)C1(C(F)(F)F)CCN(C(=O)Nc2cccc([C@H](C)Sc3nncn3C)c2)C1` (stereo partly drawn) [Example 50, N^3-methyl-N^1-(3-((S)-1-((4-methyl-4H-1,2,4-triazol-3-yl)thio)ethyl)phenyl)-3-(trifluoromethyl)pyrrolidine-1,3-dicarboxamide], the half-maximal inhibitory concentration (IC50) by setting is: under setting [2], 1 to 5 µM; under setting [1], 1 to 5 µM. Take `CC(C)C1CN(C(=O)Nc2cccc([C@H](C)Sc3nncn3C)c2)CCO1` (stereo partly drawn) [Example 51, 2-isopropyl-N-(3-((S)-1-((4-methyl-4H-1,2,4-triazol-3-yl)thio)ethyl)phenyl)morpholine-4-carboxamide]: under setting [1], the IC50 was no less than 5 µM. The same measure, in the same setting: in the case of `C[C@H](Sc1nncn1C)c1cccc(NC(=O)N2CC(OC(F)(F)F)C2)c1` [Example 52, (S)—N-(3-(1-((4-methyl-4H-1,2,4-triazol-3-yl)thio)ethyl)phenyl)-3-(trifluoromethoxy)azetidine-1-carboxamide] it was no less than 5 µM; in that of `C[C@H](Sc1nncn1C)c1cccc(NC(=O)N2CC(c3cnn(C)c3)C(C)(C)C2)c1` (stereo partly drawn) [Example 53, 3,3-dimethyl-4-(1-methyl-1H-pyrazol-4-yl)-N-(3-((S)-1-((4-methyl-4H-1,2,4-triazol-3-yl)thio)ethyl)phenyl)pyrrolidine-1-carboxamide], no less than 5 µM. Same read-out and setting: in the case of `CC1CN(C(=O)Nc2cccc([C@H](C)Sc3nncn3C)c2)CC1CO` (stereo partly drawn) [Example 54, 3-(hydroxymethyl)-4-methyl-N-(3-((S)-1-((4-methyl-4H-1,2,4-triazol-3-yl)thio)ethyl)phenyl)pyrrolidine-1-carboxamide] it was no less than 5 µM; in that of `Cc1ccc(-c2cc(-c3cccc([C@H](C)Sc4nncn4C)c3)on2)cc1` [Example 55, (S)-5-(3-(1-(4-methyl-4H-1,2,4-triazol-3-ylthio)ethyl)phenyl)-3-p-tolylisoxazole], 1 to 5 µM; in that of `Cc1cccc(-c2cc(-c3cccc([C@H](C)Sc4nncn4C)c3)on2)c1` [Example 56, 4-methyl-3-[[(1S)-1-[3-[3-(3-methylphenyl)-1,2-oxazol-5-yl]phenyl]ethyl]sulfanyl]-4H-1,2,4-triazole], 1 to 5 µM. As to `C[C@H](Sc1nncn1C)c1cccc(-c2cc(-c3ccc(Cl)cc3)no2)c1` [Example 57, (S)-3-(4-chlorophenyl)-5-(3-(1-((4-methyl-4H-1,2,4-triazol-3-yl)thio)ethyl)phenyl)isoxazole], the IC50 under setting [1] is 1 to 5 µM. On the same count and under the same terms, in the case of `C[C@H](Sc1nncn1C)c1cccc(-c2cc(-c3cccc(Cl)c3)no2)c1` [Example 58, 3-[[(1S)-1-[3-[3-(3-chlorophenyl)-1,2-oxazol-5-yl]phenyl]ethyl]sulfanyl]-4-methyl-4H-1,2,4-triazole] it was 1 to 5 µM; in that of `COc1ccc(-c2cc(-c3cccc([C@H](C)Sc4nncn4C)c3)on2)cc1` [Example 59, (S)-3-(4-methoxyphenyl)-5-(3-(1-((4-methyl-4H-1,2,4-triazol-3-yl)thio)ethyl)phenyl)isoxazole], 1 to 5 µM; in that of `COc1cccc(-c2cc(-c3cccc([C@H](C)Sc4nncn4C)c3)on2)c1` [Example 60, (S)-3-(3-methoxyphenyl)-5-(3-(1-((4-methyl-4H-1,2,4-triazol-3-yl)thio)ethyl)phenyl)isoxazole], 1 to 5 µM. Still for that read-out and setting: in the case of `C[C@H](Sc1nncn1C)c1cccc(-c2cc(-c3ccc(C#N)cc3)no2)c1` [Example 61, (S)-4-(5-(3-(1-(4-methyl-4H-1,2,4-triazol-3-ylthio)ethyl)phenyl)isoxazol-3-yl)benzonitrile] it was 1 to 5 µM; in that of `C[C@H](Sc1nncn1C)c1cccc(-c2cc(-c3cccc(C#N)c3)no2)c1` [Example 62, (S)-3-(5-(3-(1-(4-methyl-4H-1,2,4-triazol-3-ylthio)ethyl)phenyl)isoxazol-3-yl)benzonitrile], 1 to 5 µM. As to `C[C@H](Sc1nncn1C)c1cccc(-c2cc(-c3ccc(C(=O)O)cc3)no2)c1` [Example 63, 4-(5-{3-[(1S)-1-[(4-methyl-4H-1,2,4-triazol-3-yl)sulfanyl]ethyl]phenyl}-1,2-oxazol-3-yl)benzoic acid], the IC50 by setting is: under setting [2], no less than 5 µM; under setting [1], no less than 5 µM.

`C[C@H](Sc1nncn1C)c1cccc(-c2cc(-c3ccc(CO)cc3)no2)c1` [Example 64, (S)-(4-(5-(3-(1-(4-methyl-4H-1,2,4-triazol-3-ylthio)ethyl)phenyl)isoxazol-3-yl)phenyl)methanol]: the IC50 runs as follows: under setting [2], 1 to 5 µM; under setting [1], 1 to 5 µM. Consider `CNC(=O)c1ccc(-c2cc(-c3cccc([C@H](C)Sc4nncn4C)c3)on2)cc1` [Example 65, (S)—N-methyl-4-(5-(3-(1-(4-methyl-4H-1,2,4-triazol-3-ylthio)ethyl)phenyl)isoxazol-3-yl)benzamide], for which the IC50 by setting is: under setting [2], 1 to 5 µM; under setting [1], 1 to 5 µM. As for `C[C@H](Sc1nncn1C)c1cccc(-c2cc(-c3ccc(S(C)(=O)=O)cc3)no2)c1` [Example 66, ((S)-5-(3-(1-(4-methyl-4H-1,2,4-triazol-3-yl)thio)ethyl)phenyl)-3-(4-(methylsulfonyl)phenyl)isoxazole], the half-inhibitory concentration (IC50) is, setting by setting: under setting [2], no less than 5 µM; under setting [1], no less than 5 µM. Regarding `C[C@H](Sc1nncn1C)c1cccc(-c2cc(-c3ccccc3)no2)c1` [Example 67, (S)-5-(3-(1-((4-methyl-4H-1,2,4-triazol-3-yl)thio)ethyl)phenyl)-3-phenylisoxazole], the 50% inhibitory concentration (IC50) under setting [2] lay within 1 to 5 µM and the IC50 under setting [1] lay in the range of 1 to 5 µM.

Turning to `C[C@@H](Sc1nncn1C)c1cccc(-c2cc(-c3ccccc3)no2)c1` [Example 68, (R)-5-(3-(1-((4-methyl-4H-1,2,4-triazol-3-yl)thio)ethyl)phenyl)-3-phenylisoxazole], the IC50 reads like this: under setting [2], no less than 5 µM; under setting [1], no less than 5 µM. `CC(Sc1nncn1C)c1cccc(-c2cc(-c3cccc(C(F)(F)F)c3)no2)c1` (centres unmarked) [Example 69, 5-(3-(1-((4-methyl-4H-1,2,4-triazol-3-yl)thio)ethyl)phenyl)-3-(3-(trifluoromethyl)phenyl)isoxazole]: the half-inhibitory concentration (IC50) fell in the range of 1 to 5 µM under setting [2] and 1 to 5 µM under setting [1]. As for `CC(Sc1nncn1C)c1cccc(-c2cc(-c3ccccn3)no2)c1` (centres unmarked) [Example 70, 5-(3-(1-((4-methyl-4H-1,2,4-triazol-3-yl)thio)ethyl)phenyl)-3-(pyridin-2-yl)isoxazole], the IC50 by setting is: under setting [2], no less than 5 µM; under setting [1], no less than 5 µM. Regarding `CC(Sc1nncn1C)c1ccnc(-c2cc(-c3ccccc3)no2)c1` (centres unmarked) [Example 71, 5-(4-(1-((4-methyl-4H-1,2,4-triazol-3-yl)thio)ethyl)pyridin-2-yl)-3-phenylisoxazole], the IC50 was no less than 5 µM under setting [2] and no less than 5 µM under setting [1].

The values are drawn from patent US12653809B2, “Urea, amide, and substituted heteroaryl compounds for CBL-B inhibition” (Nurix Therapeutics, Inc., priority 2019, dated 2026).
